Source: ChEMBL document CHEMBL1201862, “PubChem BioAssay data set” (2004)
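Test compounds were applied to cells in 96-well plates for 48 hours at 5 doses. Abbreviation: GI50, concentration required for 50% inhibition of growth.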 Calls of active or inactive are those of the source. No stated cut-off is given here; in the data, active = GI50 up to about 1.1 µM and inactive = higher.

Experiments:
Assay in all cases: growth of human tumour cells (NCI), 48 h
TK-10 = system: TK-10
HOP-92 = system: HOP-92
RXF 393 = system: RXF 393
UO-31 = system: UO-31
HOP-62 = system: HOP-62
NCI-H522 = system: NCI-H522
Malme-3M = system: Malme-3M
NCI-H23 = system: NCI-H23
COLO 205 = system: COLO 205
SF-539 = system: SF-539
SN12C = system: SN12C
SW-620 = system: SW-620
OVCAR-5 = system: OVCAR-5
OVCAR-3 = system: OVCAR-3
HT-29 = system: HT-29

Measured: GI50

O=C(c1ccccc1)C(c1ccccc1)C1(O)C(=O)Nc2ccc([N+](=O)[O-])cc21 (stereo not given)
inactive: TK-10 > 100 µM | HOP-92 31.8 µM | RXF 393 > 100 µM | UO-31 47.6 µM | HOP-62 > 100 µM | NCI-H522 74 µM | Malme-3M > 100 µM | NCI-H23 92 µM | COLO 205 26.2 µM | SF-539 > 100 µM | SN12C 62.4 µM | SW-620 > 100 µM | OVCAR-5 > 100 µM

COc1cccc(NC(=O)C(C)(C)C)c1C=O
inactive: TK-10 35 µM | HOP-92 54 µM | OVCAR-3 37 µM | UO-31 34.3 µM | HT-29 40.7 µM | HOP-62 > 100 µM | NCI-H522 55.2 µM | Malme-3M > 100 µM | NCI-H23 48.3 µM | COLO 205 > 100 µM | SF-539 68.4 µM | SN12C 63.1 µM | SW-620 34.7 µM | OVCAR-5 62.5 µM

COC(OC)C(C)CC(=O)N(C)C (stereo not given)
inactive: TK-10 > 100 µM | HOP-92 > 100 µM | OVCAR-3 > 100 µM | UO-31 > 100 µM | HT-29 > 100 µM | HOP-62 > 100 µM | COLO 205 > 100 µM | SF-539 > 100 µM | SN12C > 100 µM | SW-620 > 100 µM | OVCAR-5 > 100 µM

O=C(/C=C/c1ccc(OCCCOc2ccc(/C=C/C(=O)c3ccc(Cl)cc3)cc2)cc1)c1ccc(Cl)cc1
inactive: TK-10 > 100 µM | HOP-92 > 100 µM | OVCAR-3 > 100 µM | RXF 393 > 100 µM | HT-29 > 100 µM | HOP-62 > 100 µM | NCI-H522 > 100 µM | Malme-3M > 100 µM | NCI-H23 > 100 µM | COLO 205 > 100 µM | SF-539 > 100 µM | SN12C > 100 µM | SW-620 > 100 µM | OVCAR-5 > 100 µM

[N-]=[N+]=N/C1=C/CCCCC(=O)C1
inactive: TK-10 > 100 µM | HOP-92 51.4 µM | RXF 393 > 100 µM | UO-31 > 100 µM | HT-29 > 100 µM | HOP-62 > 100 µM | NCI-H522 71.1 µM | Malme-3M > 100 µM | NCI-H23 > 100 µM | COLO 205 > 100 µM | SN12C > 100 µM | SW-620 > 100 µM | OVCAR-5 > 100 µM

[O-][n+]1c2cc3c(cc2[n+]([O-])c2c(O)cccc21)CN(CCN1CCOCC1)C3
inactive: TK-10 27.4 µM | HOP-92 5.7 µM | OVCAR-3 18.7 µM | RXF 393 16.1 µM | UO-31 10.6 µM | HT-29 16 µM | NCI-H522 5.36 µM | Malme-3M 48.9 µM | NCI-H23 30.7 µM | COLO 205 14.5 µM | SN12C 29 µM | OVCAR-5 38 µM

COc1cccc(NC(=O)C(=O)C2C=CCS2(=O)=O)c1 (stereo not given)
inactive: TK-10 > 100 µM | OVCAR-3 > 100 µM | RXF 393 > 100 µM | UO-31 > 100 µM | HT-29 > 100 µM | HOP-62 > 100 µM | NCI-H522 > 100 µM | Malme-3M > 100 µM | NCI-H23 > 100 µM | COLO 205 > 100 µM | SF-539 > 100 µM | SN12C > 100 µM | SW-620 > 100 µM | OVCAR-5 > 100 µM

COC(=O)C12C3C4C1C1C2C3C41C(=O)N(C(C)C)C(C)C (stereo not given)
inactive: TK-10 > 100 µM | HOP-92 > 100 µM | OVCAR-3 > 100 µM | UO-31 > 100 µM | HT-29 > 100 µM | HOP-62 > 100 µM | NCI-H522 > 100 µM | Malme-3M > 100 µM | NCI-H23 > 100 µM | COLO 205 > 100 µM | SF-539 > 100 µM | SN12C > 100 µM | SW-620 > 100 µM | OVCAR-5 > 100 µM

O=C(Nc1cc(Cl)c(Cl)cc1Cl)C(=O)C1C(=O)NC(=S)NC1=O
inactive: TK-10 > 100 µM | HOP-92 > 100 µM | RXF 393 > 100 µM | UO-31 > 100 µM | HT-29 > 100 µM | HOP-62 > 100 µM | NCI-H522 > 100 µM | Malme-3M > 100 µM | NCI-H23 > 100 µM | COLO 205 > 100 µM | SF-539 > 100 µM | SN12C > 100 µM | SW-620 > 100 µM | OVCAR-5 > 100 µM

C#CCNC(=O)NCCCCC(NC(=O)OCc1ccccc1)C(=O)OCc1ccccc1 (stereo not given)
inactive: TK-10 > 100 µM | HOP-92 > 72.4 µM | OVCAR-3 59.7 µM | RXF 393 > 100 µM | UO-31 > 48.4 µM | HT-29 75.3 µM | NCI-H522 22.3 µM | Malme-3M > 100 µM | NCI-H23 > 64.3 µM | COLO 205 17.7 µM | SF-539 > 60.5 µM | SN12C > 83.8 µM | SW-620 72.8 µM | OVCAR-5 > 100 µM

COC(=O)/C=C(C)/C=C/c1c(C)c(C(C)=O)c(C)n1C
inactive: TK-10 > 100 µM | HOP-92 18.3 µM | OVCAR-3 > 100 µM | UO-31 61.1 µM | HT-29 > 100 µM | HOP-62 > 100 µM | NCI-H522 51.1 µM | Malme-3M > 100 µM | NCI-H23 > 100 µM | COLO 205 > 100 µM | SF-539 > 100 µM | SN12C > 100 µM | SW-620 > 100 µM | OVCAR-5 > 100 µM

CCOC(=O)C1C=C2O[C@@H]3OC4(CCCCC4)O[C@@H]3C2C2C(=O)CCC(=O)[C@@]12C(=O)OC (stereo not given in full)
inactive: HOP-92 > 100 µM | OVCAR-3 82.4 µM | UO-31 > 100 µM | HT-29 > 10 µM | HOP-62 > 100 µM | NCI-H522 > 100 µM | Malme-3M > 100 µM | NCI-H23 > 100 µM | COLO 205 > 100 µM | SN12C > 100 µM | SW-620 > 100 µM | OVCAR-5 > 100 µM

C=C1C=CC2(Br)OC3CC(C)(Cl)C(Br)CC13C2(C)C (stereo not given)
inactive: TK-10 37.2 µM | HOP-92 21.2 µM | OVCAR-3 20 µM | UO-31 20.7 µM | HT-29 18.1 µM | HOP-62 23.1 µM | NCI-H522 15.4 µM | Malme-3M 18.2 µM | NCI-H23 19.1 µM | COLO 205 16.1 µM | SF-539 18.5 µM | SN12C 18.9 µM | SW-620 24.2 µM | OVCAR-5 17.1 µM

Cc1ccc(C)c(NC(=O)/C(=N\NC(N)=S)C(C#N)c2ccccc2)c1 (stereo not given)
inactive: TK-10 > 100 µM | HOP-92 > 100 µM | OVCAR-3 > 100 µM | UO-31 > 100 µM | HT-29 > 100 µM | HOP-62 > 100 µM | NCI-H522 > 100 µM | Malme-3M > 100 µM | NCI-H23 > 100 µM | COLO 205 > 100 µM | SF-539 > 100 µM | SN12C > 100 µM | SW-620 > 100 µM | OVCAR-5 > 100 µM

COc1cc(C(O)C(=O)c2nc3ccc([N+](=O)[O-])cc3nc2O)ccc1O (stereo not given)
inactive: TK-10 > 100 µM | OVCAR-3 > 100 µM | UO-31 > 100 µM | HT-29 > 100 µM | HOP-62 > 100 µM | NCI-H522 18.8 µM | Malme-3M > 100 µM | NCI-H23 > 100 µM | COLO 205 > 100 µM | SF-539 58.1 µM | SN12C > 100 µM | SW-620 > 100 µM | OVCAR-5 > 100 µM
